The text below walks through data of US10201530B2, “Treatment of BRCA1-defective cancer or resistant cancers” (City of Hope, priority 2014, dated 2019).

The subject of one experiment is KB-7D. Briefly: Cytotoxicity, KB-7D cells. It counts as cell-based, human. Conditions: Homo sapiens, KB7D, cisplatin-resistant, read-out: IC50, mean ± SEM. The procedure:
All cell lines were acquired from the American Type Culture Collection (Manassas, Va., USA). Cells were maintained in RPMI 1640 medium (Mediatech) with 10% fetal bovine serum, 2 mM glutamine, and 100 U of penicillin and 100 μg of streptomycin per ml of medium (Sigma) at 37° C. in 5% CO2. To isolate HCC1437+BRCA1 cells, parental HCC1937 cells were transfected with pcDNA3.1 plasmid expressing full-length BRCA1 cDNA. Stable transfectant clones were selected and used for drug sensitivity assays. For stable transfection, cells at 30-40% confluence were incubated overnight with […] of plasmid DNA, using FUGENE® 6 transfectin reagent (Roche Molecular Biochemical, Monza, Italy) according to the manufacturer's instructions. Cells were then selected in puromycin (1 μg/ml) (Invitrogen life Technologies, La Jolla, Calif., USA.) After 20 to 30 days, viable puromycin-resistant colonies from HCC1937 transfections were expanded and screened. The clones that stably expressed […] and retained growth potential were assayed for BRCA1 expression by Western blot analysis. By Western blot analysis, we evaluated the restoration of BRCA1 expression in the puromycin-resistant cDNA/transfectant cells.
The MTT cytotoxicity assay was performed by incubating with MTT and monitoring the MTT formazan formed by viable cells with a microplate reader at a wavelength of 560 nm; the survival, ratio was determined using the formula: (Atest−Ablank)/(Acontrol−Ablank)×100%. The cytotoxicity was determined in 96-well plates using the semiautomatic fluorescence-based Digital Imaging Microscopy System (DIMSCAN). DIMSCAN uses digital imaging microscopy to quantify viable cells, which selectively accumulate FDA (fluorescein diacetate; Alfa Aesar, Ward Hill, Mass.). DIMSCAN is capable of measuring cytotoxicity over a 4 log dynamic range by quantifying total fluorescence per well (which is proportional to the number of viable cells) after elimination of the background fluorescence by digital thresholding and eosin Y (Mallinckrodt Baker, Center Valley, Pa.) quenching. Cells were seeded into 96-well plates in 100 μL of complete medium at 2,000 to 5,000 cells per well depending on cell line growth rate. After overnight incubation, test compound was added to each well at various concentrations in 50 μL of culture medium. After incubation with the drugs for 96 hours at 37° C., FDA (final concentration: […]) and eosin Y [final concentration: 0.1% (w/v)] were added to each well and the cells were incubated for an additional 20 minutes at 37° C. Total fluorescence per well was then measured using DIMSCAN, and the results were expressed as the ratio of the fluorescence in treated wells to the fluorescence in untreated wells (survival fraction).

The subject of another experiment is PARP1 protein. Briefly: PARP1 protein level by Western blot. The format is cell-based, human. The procedure:
For subcellular fractionation, cells were trypsinized and washed with cold PBS solution twice. […] Following centrifugation at 1,000 g for 5 min, the supernatant was collected (i.e., cytoplasmic fraction) and pellets were washed with the same buffer twice. The washed samples were extracted for 40 min on ice with fractionation buffer containing 0.5% NP-40 for nuclear fraction. All the samples were sonicated and clarified by centrifugation at 16,000 g for 15 min. Protein concentrations of all fractions were determined with Bio-Rad Protein Assay (Bio-Rad Laboratories, Hercules, Calif.). Immunoblotting was performed as described previously (21,22). Briefly, equal amounts of boiled protein samples were subjected to SDS-polyacrylamide gel electrophoresis (PAGE) and transferred onto nitrocellulose membranes (Bio-Rad Laboratories). Membranes were blocked for 1 hour in 3% BSA in Tris buffered saline containing 0.05% Tween 20 (TBST) and incubated for 1 hour with primary antibody (1:500 or 1:1000) diluted in TBST containing 1% BSA. After two washes with TBST, membranes were incubated for 1 hour with horseradish peroxidase-conjugated secondary Abs (1:3000 dilution) at room temperature. The immunoblots were visualized on film with the West-Q chemi-luminescence kit (GenDEPOT, Barker, Tex.).
For orientation: Immunoblotting shows a protein as a band on a membrane.

Experiment [1] has as its system γ-H2AX, phospho-p53, phospho-ATM, foxo3, Rad51, BRCA1. Briefly: DDR-associated proteins in A549 cells (Western blot, immunofluorescence). The format is cell-based, human. The procedure: Immunofluorescence experiments were conducted as described previously (21,22). Specifically, A549 cells were grown on glass coverslips. After treatment with COH29 (1 or 10 μM) for 24 or 48 hours, cells were fixed with 4% paraformaldehyde for 10 min and permeabilizsd with TRITON™ X-100 (0.5%). The coverslips were washed with phosphate-buffered saline (PBS) and blocked with PBS-containing 2% bovine serum albumin (BSA), incubated with an Ab specific to FOXO3 or ATM-pS1981 or γ-H2AX or p53-pS15 (1:50-1:200 dilution), followed by Alexa 488-conjugated anti-rabbit or anti-mouse (1:200). Alexa 594-conjugated anti-goat (1:100) secondary Abs (Molecular Probes). Cells were incubated with 4′,6-diamidino-2-phenylindole (DAP1; Sigma) to stain the nuclei. Specific staining was visualized and images were captured with a Leica SF2 AOBS confocal laser scanning microscope. To measure foci-positive cells, we used ˜300 cells randomly captured by confocal microscopy. The percentages of considering foci-positive cells were calculated from cells containing at least five foci. Each error bar presented is the mean of standard deviation.
For subcellular fractionation, cells were trypsinized and washed with cold PBS solution twice. After centrifugation at 1,200 g for 5 min, cells were incubated in buffer (50 mM HEPES, pH 7.5, 150 mM NaCl, 1 mM EDTA) containing 0.2% NONIDET™ P-40 (NP-40), supplemented with protease inhibitors (5 μg/ml each of pepstatin, leupeptin, and aprotinin) and phosphatase inhibitors on ice for 5 min. Following centrifugation at 1,000 g for 5 min, the supernatant was collected (i.e., cytoplasmic fraction) and pellets were washed with the same buffer twice. The washed samples were extracted for 40 min on ice with fractionation buffer containing 0.5% NP-40 for nuclear fraction. All the samples were sonicated and clarified by centrifugation at 16,000 g for 15 min. Protein concentrations of all fractions were determined with Bio-Rad Protein Assay (Bio-Rad Laboratories, Hercules, Calif.). Immunoblotting was performed as described previously (21,22). Briefly, equal amounts of boiled protein samples were subjected to SDS-polyacrylamide gel electrophoresis (PAGE) and transferred onto nitrocellulose membranes (Bio-Rad Laboratories). Membranes were blocked for 1 hour in 3% BSA in Tris buffered saline containing 0.05% Tween 20 (TBST) and incubated for 1 hour with primary antibody (1:500 or 1:1000) diluted in TBST containing 1% BSA. After two washes with TBST, membranes were incubated for 1 hour with horseradish peroxidase-conjugated secondary Abs (1:3000 dilution) at room temperature. The immunoblots were visualized on film with the West-Q chemi-luminescence kit (GenDEPOT, Barker, Tex.).

For experiment [2] the following is noted: more potent than HU, ref (6); cited from earlier work.

`O=C(Nc1nc(-c2ccc(O)c(O)c2)c(-c2ccccc2)s1)c1ccc(O)c(O)c1` [COH29]: in the experiment on KB-7D, the IC50 came out at 8.48 ± 0.27 µM. The “effect on PARP1 protein level” value in the experiment with PARP1 protein (HCC1937 BRCA1-defective cells, 24 h) was “attenuated PARP1 protein”; with PARP1 protein (HCC1937 cells irrespective of BRCA1 status, 4 h treatment), “Little reduction”. Moreover, the “nuclear γ-H2AX, phospho-p53, phospho-ATM” value in experiment [1] (A549 BRCA1 wild-type NSCLC cells, 48 h) is “induced accumulation of γ-H2AX, phospho-p53, and phospho-ATM in the nucleus”. Moreover, in experiment [1] (A549 cells), the “nuclear foxo3 and p27” value was “induction of foxo3 and its target protein p27 in the nucleus”. Also, the “BRCA1 protein level and Rad51 foci formation” value in experiment [1] (A549 cells, 24 h) was “suppressed the protein level of BRCA1 and Rad51 foci formation”. Also, the “Rad51 expression, Western analysis” value in experiment [1] (nucleus of A549 cells) is “downregulated in the nucleus”. Moreover, in experiment [2], the “potency relative to HU” value is on record as 20 fold.

A word on the IC50: it is the concentration that inhibits the measured activity by half.
